Experimental data from patent publication US4218474A, “Derivatives of L- and DL-4-hydroxyphenylglycine” (Pfizer Inc., priority 1977, dated 1980).
Where a name gives a salt, the structure may show the parent alone. Square brackets hold non-standard residues; d marks the D form. Peptide text beside a SMILES is read from it. Hpg = N[C@H](C(=O)O)c1ccc(O)cc1

Experiments:
[1] = test system: pyruvate oxidation by diaphragm tissue from fat-fed rats; experiment: Stimulation of pyruvate oxidation by diaphragm tissue from fat-fed rats in vitro; type: cell-based; conditions: Rattus norvegicus, concentration of 0.5 mmoles, L-compounds
Method: Representative compounds of the formula (II) have been tested for their ability to increase the oxidation of glucose and/or pyruvate as follows: Diaphragm tissue is obtained from rats fed on a high fat diet similar to `Diet B` described by Zaragoza and Felber [Horm. Metab. Res., 2, 323 (1970)]. Pyruvate oxidation by such tissue is assessed by measurement of the rate of incorporation of carbon-14 from carbon-14-labelled pyruvate into carbon dioxide in vitro, as described by Bringolf [Eur. J. Biochem., 26, 360 (1972)]. The rate of pyruvate oxidation is depressed by 50%-75% compared with that by diaphragm tissue from rats fed on a normal diet. When the L- and DL-compounds of the formula (II) are added to the medium, they are found to stimulate pyruvate oxidation by diaphragm tissue from fat-fed rats in a dose dependent manner.

[2] = test system: pyruvate dehydrogenase enzyme; experiment: Increase in proportion of active form of pyruvate dehydrogenase (PDHa/PDHt) in hearts of fat-fed rats in vivo; conditions: 0.6 mg./kg. oral or sub-cutaneous; rat hearts removed after 11/2 hours; L-compounds; placebo ratio 0.12-0.21
Method: The ability of compounds of formula (II) to increase the proportion of the active form of the pyruvate dehydrogenase enzyme has been measured in the following test: Rats fed on a high fat diet as in the previous test, are treated either with placebo or with the compound of formula (II) by subcutaneous or intravenous injection or by oral administration. After 11/2 hours the rat hearts are removed and homogenized under conditions which minimize changes in the proportion of the pyruvate dehydrogenase enzyme […] which is present in the active form, as described by Whitehouse and Randle [Biochem. J., 134, 651 (1973)]. The total amount of the enzyme present (PDHt) and the amount which is present in the active form (PDHa) are assessed by a method similar to that described by Taylor et al. [J. Biol. Chem., 248, 73 (1973)]. The fat-feeding process is found to depress the ratio […] from a normal value of about 0.7 to a value in the range from 0.05 to 0.2. Treatment of fat-fed rats with L- and DL-compounds of formula (II) either parenterally or orally, increases this ratio in a dose-dependent manner. The increase in the […] ratio affected by the L-compounds of formula (II) at a dosage level of 0.6 mg./kg. via the oral or sub-cutaneous route is shown in the following Table: […]

CC(C)NC(=O)[C@@H](N)c1ccc(O)cc1 [Example 2, L-N-isopropyl-2-amino-2-(4-hydroxyphenyl)acetamide]
activation at 500 µM [1]: 108%
PDHa/PDHt ratio, compound [2]: 0.65

C#CCNC(=O)[C@@H](N)c1ccc(O)cc1 [Example 4, L-N-propargyl-2-amino-2-(4-hydroxyphenyl)acetamide]
activation at 500 µM [1]: 82%
PDHa/PDHt ratio, compound [2]: 0.73

CC(C)(C)NC(=O)[C@@H](N)c1ccc(O)cc1 [Example 3]
activation at 500 µM [1]: 15%
PDHa/PDHt ratio, compound [2]: 0.56

CNC(=O)[C@@H](N)c1ccc(O)cc1.Cl [Example 13, (L)-N-methyl-2-Amino-2-(4-hydroxyphenyl)acetamide hydrochloride]
activation at 500 µM [1]: 45%
PDHa/PDHt ratio, compound [2]: 0.55

CCN(CC)CCNC(=O)[C@@H](N)c1ccc(O)cc1 [Example 6, L-N-(2-diethylamino)ethyl-2-amino-2-(4-hydroxyphenyl)acetamide]
activation at 500 µM [1]: 38%
PDHa/PDHt ratio, compound [2]: 0.78

Cl.N[C@H](C(=O)N[C@@H](Cc1ccc(O)cc1)C(=O)O)c1ccc(O)cc1 [Example 16, N-[(L)-2-(4-Hydroxyphenyl)glycyl]-(L)-tyrosine hydrochloride] (H-[Hpg]-Tyr-OH)
activation at 500 µM [1]: 67%
PDHa/PDHt ratio, compound [2]: 0.31

N[C@H](C(=O)NCC(=O)O)c1ccc(O)cc1 [Example 17, N-[(L)-2-(4-hydroxyphenyl)glycyl]-glycine hydrochloride dioxanate] (H-[Hpg]-Gly-OH)
activation at 500 µM [1]: 41%
PDHa/PDHt ratio, compound [2]: 0.31

COc1ccccc1OCC(O)CNC(=O)[C@@H](N)c1ccc(O)cc1 (stereo partly shown) [Example 15]
activation at 500 µM [1]: 55%
PDHa/PDHt ratio, compound [2]: 0.25

COCCNC(=O)[C@@H](N)c1ccc(O)cc1 [Example 14, L-N-(2-methoxyethyl)-2-amino-2-(4-hydroxyphenyl)acetamide]
activation at 500 µM [1]: 76%
PDHa/PDHt ratio, compound [2]: 0.88

Cl.N[C@H](C(=O)NCc1ccc(O)cc1)c1ccc(O)cc1 [Example 1, (L)-N-(4-Hydroxybenzyl)-2-amino-2-(4-Hydroxyphenyl)acetamide hydrochloride]
activation at 500 µM [1]: 72%
PDHa/PDHt ratio, compound [2]: 1.00

N[C@H](C(=O)NC1CCCC1)c1ccc(O)cc1 [Example 5, L-N-cyclopentyl-2-amino-2-(4-hydroxyphenyl)acetamide]
activation at 500 µM [1]: 23%
PDHa/PDHt ratio, compound [2]: 0.88
